Tests used:
[1] = test system: OCI-AML5 cells; details: FIG. 5G, 6-day culture
Procedure: FIGS. 5A-5J show the results on experiments assessing the mode of action of Mubritinib for mediating tumor cell death. FIG. 5A: OCI-AML3 leukemic cells were either pre-incubated for 4 hours with 6 mM N-acetyl-cysteine (NAC), a reactive oxygen species (ROS) scavenger, or with vehicle (water) before being treated with 100 nM Mubritinib for 24 h or vehicle (DMSO). […] FIGS. 5C and 5D show the levels of reduced and oxidized levels of glutathione, respectively, in OCI-AML3 treated or not with Mubritinib, as detected by liquid chromatography-mass spectrometry (LC/MS). […] FIG. 5G is a graph depicting dose-response curves upon Mubritinib treatment (6-day culture assay in 384-well plates) of OCI-AML3 and OCI-AML5 cell lines. […]
Patient cells were seeded in 384-well plates at a density of 5,000 cells in 50 μL per well. […] Viable cell counts per well were evaluated after 6 days of culture using the CellTiterGlo® assay (Promega®) according to the manufacturer's instruction. The percent of inhibition was calculated as follows: 100−(100×(mean luminescence(compound)/mean luminescence(DMSO)); where mean-luminescence(compound) corresponds to the average of luminescent signals obtained for the compound-treated cells, and mean-luminescence(DMSO) corresponds to the average of luminescent signals obtained for the control DMSO-treated cells.

[2] = test system: OCI-AML3 cells
Procedure: (§1) FIGS. 5A-5J show the results on experiments assessing the mode of action of Mubritinib for mediating tumor cell death. FIG. 5A: OCI-AML3 leukemic cells were either pre-incubated for 4 hours with 6 mM N-acetyl-cysteine (NAC), a reactive oxygen species (ROS) scavenger, or with vehicle (water) before being treated with 100 nM Mubritinib for 24 h or vehicle (DMSO). […] FIGS. 5C and 5D show the levels of reduced and oxidized levels of glutathione, respectively, in OCI-AML3 treated or not with Mubritinib, as detected by liquid chromatography-mass spectrometry (LC/MS). […] FIG. 5G is a graph depicting dose-response curves upon Mubritinib treatment (6-day culture assay in 384-well plates) of OCI-AML3 and OCI-AML5 cell lines. FIGS. 5H-J are graphs depicting dose-response curves following treatment of OCI-AML3 and OCI-AML5 cell lines with other ETC inhibitors, namely Oligomycin (inhibitor of complex V, FIG. 5H), Rotenone (inhibitor of complex I, FIG. 5I) and Deguelin (inhibitor of complex I, FIG. 5J).
(§2) Dead cells were stained using Propidium iodide at a final concentration of 1 μg/mL.

[3] = test system: OCI-AML3 leukemic cells; details: 500 nM, 24 h (FIG. 5B)
Procedure: as §1, §2

[4] = test system: OCI-AML3 leukemic cells; details: acute injection, 1 μM (FIG. 5E)
Procedure: Oxygen consumption rates and extracellular acidification rates were measured using a 96-well Seahorse Bioanalyzer XFe96® or XFe24® according to the manufacturer's instructions (Agilent Technologies). Seahorse XF Base medium was supplemented with 1 mM pyruvate, 2 mM glutamine and 10 mM glucose in the case of Mitochondrial Stress Test and with 1 mM pyruvate, 2 mM glutamine and no glucose in the case of Glycolytic Stress Test. The pH of the Seahorse media was then adjusted at 7.4 prior to assay. In brief, leukemic cells were seeded into Seahorse 96-well (or 24-well) plates pre-coated for 3 h with poly-lysine (Sigma-Aldrich, P4707) at a density of 75,000 cells/well in 100 μL (or 150,000 cells/well, in 150 μL) of temperature/CO2 pre-adjusted Seahorse media per well. The Seahorse plates were then centrifuged at 1400 rpm for 5 min. An additional 75 μL (or 375 μL) of Seahorse media was then added and cells were eventually analyzed following the manufacturer's instructions by adding compounds in a constant volume of 25 μL (or 75 μL). Compounds were acutely injected in cells at a final concentration of 1 μM for Mubritinib, 1 μM for Oligomycin, 0.5 μM for FCCP, 0.5 μM for Rotenone/Antimycin A, Glucose 10 mM and 2-Deoxy-Glucose 50 mM.

[5] = test system: Complex I enzyme activity in OCI-AML3 cells; details: FIG. 8
Procedure: Complex I activity is determined by following the oxidation of NADH to NAD+ and the simultaneous reduction of a dye which leads to increased absorbance at OD=450 nm.

**Q.** How did the “sensitivity of OCI-AML5 cells to compound-induced cell death” value [1] turn out when `FC(F)(F)c1ccc(/C=C/c2nc(COc3ccc(CCCCn4ccnn4)cc3)co2)cc1` [Mubritinib, 1-(4-{4-[(2-{(E)-2-[4-(trifluoromethyl)phenyl]ethenyl}-1,3-oxazol-4-yl)methoxy]phenyl}butyl)-1H-1,2,3-triazole] was run?
**A.** The value was “resistant”.

**Q.** And the “Mubritinib-induced apoptosis in the presence of the ROS scavenger N-acetyl-cysteine (NAC)” value ([2]; 4 hours pre-incubation with 6 mM NAC, then 100 nM Mubritinib for 24 h (FIG. 5A))?
**A.** Its value is “significantly decreased”.

**Q.** What about the “Annexin V staining (marker of apoptosis)” value ([2]; 24 hours, 100 nM or 10 μM (FIG. 4C)) of the same compound?
**A.** The value was “increase in Annexin V staining”.

**Q.** What about the “number of dead (PI-positive) cells” value ([2]; 27 hours of treatment, compared to DMSO (FIG. 4B)) of the same compound?
**A.** The value was “increase in the number of dead (PI-positive) cells”.

**Q.** And the “live cell counts (Propidium Iodide-negative cells)” value ([2]; four days of treatment, different concentrations, dose-dependent (FIG. 4A))?
**A.** Its value is “reduction of live cell counts”.

**Q.** What about the “level of ROS activity (hydroxyl, peroxyl) by DCFDA” value [3] of the same compound?
**A.** Its value is “increased”.

**Q.** What about the oxygen consumption rate [4] of the same compound?
**A.** Its oxygen consumption rate is “impaired oxygen consumption rate”.

**Q.** And the “inhibitory effect on complex I in diaphorase-type (NADH oxidation) assay” value [5]?
**A.** The value was “NADH-independent”.
